The values below come from PMC9884808, “Pharmacokinetics, tissue distribution, and antitumor activity of a novel compound, NY-2, in non-small cell lung cancer” (Frontiers in Pharmacology, 2023).

Entries after “also recorded” stand apart in the source; their conditions may differ.

For one series, the system named is T47D. In words: MTT cell viability assay. The class given is cell-based, human. The note with it: Homo sapiens, T47D breast cancer cells. On the procedure:
(§1) The human colorectal cancer cell lines, HCT116 and LoVo, the breast cancer cell line, T47D, the hepatocellular carcinoma cell line, HepG2, the normal human liver cell line, HL7702, human umbilical vein endothelial cells (HUVECs), and the non-small cell lung cancer cell lines, A549, H1993, HCC827, H460, were purchased from the American Type Culture Collection (Manassas, VA, United States). Cell lines were cultured in the recommended RPMI-1640 medium (AE24464298, Hyclone, United States) and DMEM medium (AE29422278, Hyclone, United States) supplemented with 10% fetal bovine serum (FBS; JC63470, FB15015, Clark, United States) with 1% penicillin-streptomycin. Cells were maintained in an incubator at 37°C with 5% CO2 (HF90,Sanyo, Japan) and passaged every 48–72 h, after detaching with 0.25% trypsin (Sigma, United States). The compounds ZLDI-8 and NY-1 to -15 were synthesized in the laboratory of Dr. Huaiwei Ding in Shenyang Pharmaceutical University, and verified by high-performance liquid chromatography (purity >95%) for use in experiments (Supplementary Figure S1). Paclitaxel was purchased from MedChemExpress (HY-B0015, 99.97% purity, United States).
(§2) Cell viability was measured by the MTT assay. HCT116, HL7702, A549, H1993, HCC827, and H460 cells were dispensed into 96-well plates at a density of 1 × 10^5 cells/mL. After 24–48 h incubation, cells were treated with the compounds at different concentrations for the indicated periods. An assay kit (WLA073, Wanlei Co., Liaoning, China), was used according to the manufacturer’s instructions to measure LDH activity, The absorbance at 450 nm was measured with a microplate reader (Elx-800, Bio-Rad, China).
(§3) The preliminary antitumor activity of the series of ZLDI-8 derivatives, NY-1 to -15 was screened by the MTT cell viability assay. […] The antitumor activity of NY-2 on HCT116 cells was concentration- and time-dependent, and slightly better than that of the original compound, ZLDI-8.

Series [1] is described as follows: Hepatotoxicity and nephrotoxicity experiments in KM mice. The series is classed as in vivo. The note with it: for pathological changes of liver and kidney tissues (H&E): vs control; for effect on overall antioxidant capacity: T-AOC kit, ABTS method. On the procedure:
Animal experiments were approved by the Ethics Committee on Laboratory Animal Management of Shenyang Pharmaceutical University (Approval Document No. SYPU-SQ-001). All animals received humane care according to the local guidelines for the Care and Use of Laboratory Animals of the Shenyang Pharmaceutical University. All animals were housed under specific pathogen-free (SPF) conditions at 25°C with 50% humidity, with free access to food and water for 7 days to adapt. KM mice (male, 4–5 weeks old and weighing 18–22 g) were purchased from Liaoning Changsheng Biotechnology Co., Ltd. (Liaoning, China, animal license #SCXK-2020–0001). For the hepatotoxicity and nephrotoxicity assays, NY-2 was injected via tail vein into KM mice, and the results were used in deciding on the test dose for antitumor activity in a nude mouse cancer model. Its influence on the immune system was also determined. The treatment groups were ZLDI-8, NY-2, DMSO control, and normal saline control, with six mice in each group. The mice were fasted for 12 h before the experiment, but were allowed to drink water freely. ZLDI-8 and NY-2 were dissolved in 1% DMSO containing 1% Tween and 6 mg/kg was administered by a daily tail vein injection for seven consecutive days ([Lu et al., 2020]).
After injection of the compounds, blood was drawn and serum was collected for the determination of ALT and AST levels (Nanjing Jiancheng Bioengineering Institute, China, C009-2-1 and C010-2-1) to assess liver function. Serum creatinine (sCr, Nanjing Jiancheng Bioengineering Institute, China, C011-2-1) and blood urea nitrogen (BUN, Nanjing Jiancheng Bioengineering Institute, China, C013-2-1) were measured to assess renal function. Tumor necrosis factor-α (TNF-α, Cusabio, Wuhan, China, CSB-E04741m) and interleukin-6 (IL-6, Cusabio, Wuhan, China, CSB-E04639m) were used as markers to evaluate the immune inflammatory response, and an assay kit (T-AOC, S0119, Beyotime) was used to measure total antioxidant capacity by the ABTS method. Mice were euthanized by cervical dislocation, liver and kidney tissue was removed and fixed in formalin, dehydrated in ethanol, embedded in paraffin, and sectioned for staining with hematoxylin and eosin (H&E).
KM mice were treated with ZLDI-8 or NY-2 by tail vein injection (6 mg/kg) for 7 days, then the mice were euthanized and liver and kidney tissues were removed and sectioned. For the experiment with BALB/c nude mice, the tail vein injections of NY-2 (6 mg/kg) were continued for 28 days, and the lungs, tumor, heart, liver, and kidney were removed. Trimmed tissue samples were fixed in 4% paraformaldehyde for 24 h, dehydrated in graded ethanol solutions, embedded in paraffin and sectioned. Sections for staining were dewaxed with xylene and then rehydrated, and hematoxylin-eosin staining was performed, after which the sections were again dehydrated in ethanol and cleared with xylene before being mounted on a slide, cover-slipped and examined microscopically. The remainder of the tumors and tissues was frozen in liquid nitrogen for other studies.

Another series has as its system HCT116. Kind of series: MTT cell viability assay. The series is classed as cell-based, human. To be noted: Homo sapiens, HCT-116, HCT116 colorectal cancer cells. On the procedure:
as §1, §2, §3

The test system of series [2] is normal human liver cell line, HL7702. Kind of series: MTT cytotoxicity on normal cells. The class given is cell-based. To be noted: 48 h; for cytotoxic effects on normal liver cells (HL7702): concentration ≤10 μM. How it is done: as §1, §2
First, the effects of NY-2 and ZLDI-8 on the survival rates of four NSCLC cell lines, A549, H1993, HCC827, H460, were compared by the MTT cytotoxicity assay. The various types of NSCLC cells were incubated with increasing concentrations of NY-2 and ZLDI-8 (1.25, 2.5, 5, 10, and 20 μM), and the cell viability at 48 h was measured. […]

For the next series, the system named is LoVo. In words: MTT cell viability assay. The class given is cell-based, human. The note with it: Homo sapiens, LoVo colorectal cancer cells. On the procedure: as §1, §2, §3
A further series concerns H460. Kind of series: MTT cytotoxicity assay, NSCLC cells. The series is classed as cell-based. To be noted: Homo sapiens, NCI-H460, 48 h. How it is done:
as §1, §2
(§4) First, the effects of NY-2 and ZLDI-8 on the survival rates of four NSCLC cell lines, A549, H1993, HCC827, H460, were compared by the MTT cytotoxicity assay. The various types of NSCLC cells were incubated with increasing concentrations of NY-2 and ZLDI-8 (1.25, 2.5, 5, 10, and 20 μM), and the cell viability at 48 h was measured. […] Considering that the culture time might be too long, NY-2 was selected for 48 h treatment at increasing concentrations of 2.5, 5.0, and 10 μM as the experimental conditions for subsequent in vitro experiments.

A further series relates to HCC827. In words: MTT cytotoxicity assay, NSCLC cells. The class given is cell-based. To be noted: Homo sapiens, 48 h. How it is done:
as §1, §2, §4

A further series concerns H1993. In words: MTT cytotoxicity assay, NSCLC cells. The class given is cell-based. To be noted: Homo sapiens, NCI-H1993, 48 h. On the procedure:
as §1, §2, §4

The test system of the next series is A549. In words: MTT cytotoxicity assay, NSCLC cells. The series is classed as cell-based. To be noted: Homo sapiens, 48 h. On the procedure: as §1, §2, §4
[3] abbreviates: 6 mg/kg daily tail vein injection, 7 days.

Consider `Cc1ccc(OCCn2c(C)c(C=C3C(=O)NC(=S)NC3=O)c3ccccc32)c(C)c1` [ZLDI-8, reference compound], for which the IC50 in the series with T47D was determined as 29.1 µM; with HCT116, 7.72 µM; with LoVo it was 9.65 µM; in the series on H460 it was 25.2 ± 2 µM; with HCC827, 9.39 ± 0.99 µM; in the series on H1993 it was 8.33 ± 1.01 µM. The same molecule yielded an IC50 in the series on A549 of 23.1 ± 2.27 µM. For the same molecule, the “effect on IL-6 and TNF-α levels compared with the control group” value in [1] (setting [3]) is “no significant effect”. Further, the “BUN compared with the control group” value in series [1] (6 mg/kg daily tail vein injection, 7 days, serum, only significant difference) was “possible decrease”. Also, the “pathological changes of liver and kidney tissues (H&E)” value in [1] (setting [3]) was “no obvious pathological changes”. The “effect on overall antioxidant capacity” value in series [1] is recorded as “neither ZLDI-8 nor NY-2 had any overt effect”. In addition, the “cytotoxic effects on normal liver cells (HL7702)” value in series [2] is on record as “neither ZLDI-8 nor NY-2 had any obvious cytotoxic effects on normal cells”.
Consider `Cc1c(C=C2C(=O)NC(=S)NC2=O)c2ccccc2n1CCOc1ccc(F)cc1` [NY-2], for which the IC50 in the series with T47D was 34.7 µM; in the series with HCT116, 5.35 µM; in the series on LoVo it was 5.82 µM; in the series on H460, 13.5 ± 0.58 µM; in the series on HCC827 it was 5.98 ± 0.75 µM; in the series on H1993, 4.78 ± 0.64 µM. This molecule came in with an IC50 in the series with A549 of 8.95 ± 0.58 µM. Moreover, the “effect on IL-6 and TNF-α levels compared with the control group” value in series [1] (setting [3]) was “no significant effect”. For the same molecule, the “levels of AST, ALT, sCr, and BUN compared with the control group” value in series [1] (6 mg/kg daily tail vein injection, 7 days, serum) was “no significant differences”. In [1] (setting [3]), the “pathological changes of liver and kidney tissues (H&E)” value was “no obvious pathological changes”. In [1], the “effect on overall antioxidant capacity” value is on record as “neither ZLDI-8 nor NY-2 had any overt effect”. For the same molecule, the “cytotoxic effects on normal liver cells (HL7702)” value in [2] is “neither ZLDI-8 nor NY-2 had any obvious cytotoxic effects on normal cells; also recorded: no obvious cytotoxic effects”. In addition, in series [2] (concentrations >10 μM), the “toxic effects on normal liver cells (HL7702)” value is “slightly weaker toxic effects than ZLDI-8”.
